Measured values reported in patent publication US4001428A, “Cyclopropane derivatives and use thereof as cell membrane mobility agents” (Polymer Sciences Corporation, priority 1974, dated 1977).

Assays:
[1] = Retained activity of sonicated suspension; type: physicochemical; conditions: dispersed in 150 mM NaCl by sonication, ca. 2 min
Procedure: (§1) Blood from the brachial vein of adult hens was mixed with heparin (as anticoagulant), centrifuged and the buffy coat removed. The erythrocytes were washed twice with 150 mM NaCl and once with buffer containing 76 mM sodium acetate, 70 mM NaCl, 1 mM CaCl2 and 100 mg/cc Dextran (MW 70,000) Pharmacia, Uppsala, Sweden (pH 5.7). The buffer is similar to but simpler than that used in a similar procedure by Lucy et al. The cells were resuspended in the same buffer and mixed with an equal volume of a suspension of the mobility agent A2 C dispersed in 150 mM NaCl by sonication. […] The final concentrations of A2 C used ranged between 0.06μl to 0.5 μl/cc containing 2-3 × 10^8 cells, 0.5 mM CaCl2, 38 mM sodium acetate, 110 mM NaCl and dextran (50 mg/cc). Cell suspensions were incubated at the desired temperature, mixed gently every 5 - 15 minutes and aliquots removed at intervals for viewing and photography at room temperature.

neurotransmitter release = experiment: Neurotransmitter release from cells; type: cell-based
Source text: Many intracellular agents are released from cells at rates which are below that desirable for optimum bilogical activity. […] For example, the use of the membrane mobility agents of the invention on brain tissue would lead to more efficient response to pharmacologically-active compounds and stimuli (such as electrical stimuli) on such brain tissue.

hen red blood cells = experiment: Fusion of hen red blood cells; type: cell-based; conditions: 0.125 to 0.5 μl/cc of cell suspension, 37° C
Procedure: as §1

mastocytoma = experiment: Agglutination of mastocytoma cells by wheat germ agglutinin and cap formation; type: cell-based
Source text: Some malignant cells, like mastocytoma, agglutinate in the presence of wheat germ agglutinin.

lymphocytes = experiment: Viability/cytotoxicity of lymphocytes, dye-exclusion test with trypan blue; type: cell-based; conditions: 60 minutes incubation, FIG. 1
Procedure: The viability of the cells thus incubated was evaluated by the dye-exclusion test, using trypan blue.

rabbit lymphocytes = experiment: Cap formation on lymphocytes treated with fluorescent antibody (membrane mobility); type: cell-based
Procedure: Cap formation was followed on rabbit lymphocytes preincubated for various periods of time with one of the compounds, then treated with fluorescent antibody. At least 20 minutes preincubation with the aqueous dispersion of agent A2 C were required to produce a change in the observed rate from that of the control and between 1 and 2 h incubation was required for maximum response. A 1-h period was utilized in most experiments.
FIG. 2 illustrates the rate of cap formation in lymphocytes treated with A2 C. In each of these experiments rabbit blood was anticoagulated with heparin (200 I.U./cm^3) and diluted with NaCl-phosphate buffer, pH 7.3 (137 mM NaCl-1.8 mM KH2 PO4 -8.2 mM Na2 HPO4) to 40% of original volume. Diluted blood was layered over sodium metrizoate (Nyegaard, Oslo, Norway)-Ficoll (Pharmacia, Uppsala, Sweden) mixture (containing 6.3% Ficoll and 10% sodium metrizoate), and centrifuged for 30 min. at 400 g at 25° C. Cells collected from the interphase contained over 80% lymphocytes. Cells were centrifuged, washed 3 times in buffer containing albumin and resuspended in the same or A2 C buffer. (A2 C was suspended in buffer (with Vortex) and albumin added). Final concentrations: lymphocytes 10^7 cells/cm^3.A2 C 0.02-0.2 μl/cm^3, 0.2% albumin, 5 mM glucose. Usual sample volume: 0.2 cm^3. The cell suspension was incubated at 22° or 24° C for 60 min. […] Expt I: 0.1 1 A 2 C per cm^3; (log concn -3.7); temp. 22 C. Expt II: 0.02 and 0.2 A2 C per cm^3; temp. 24° C. Expt III: 0.2 A2 C per cm^3; temp. 24° C.

glutathione = conditions: within cells; cited from earlier work

CCCCCCCCC1CC1CCCCCCCC(=O)OCCOCCOC (stereo not shown) [A2 C, 2-(2-methoxy)-ethoxyethyl 8-(2-n-octylcyclopropyl octanoate]
activity of sonicated suspension over time [1]: remains active for several hours
neurotransmitter release (neurotransmitter release): augmented by a small factor
extent of erythrocytes eventually involved in fusion (hen red blood cells): most of the erythrocytes
fusion of erythrocytes, degree of fusion (hen red blood cells): increasing degrees of fusion, starting with binucleated, trinucleated and tetranucleated cells and proceeding to multi-nucleated cells
rounding and swelling of the cells (hen red blood cells): rounding and swelling of the cells
cap formation on mastocytoma cells (mastocytoma): cause caps to form
extent of agglutination (mastocytoma; wheat germ agglutinin): diminish the extent of agglutination
cytotoxicity on lymphocytes relative to concentration affecting mobility (lymphocytes): toxic at concentrations considerably above that at which maximum effect on mobility was observed
rate of cap formation in treated cells, increase over controls (rabbit lymphocytes; 0.02-0.2 μl/cm^3, 60 min incubation at 22° or 24° C, FIG. 2): ≤ 50%
effect of inherent "high" or "low" capacity for cap formation on the effects of the agent (rabbit lymphocytes; FIG. 2): does not alter the effects produced by the mobility agent
initial state of treated cells, extrapolation to zero cap formation time (rabbit lymphocytes; FIG. 2): might be initially more "prepared" to form caps than the control cells
preincubation time required to produce a change in the observed rate of cap formation from that of control (rabbit lymphocytes; aqueous dispersion of agent, rabbit lymphocytes): At least 20 minutes

CCCCCCCCC1CC1CCCCCCCCOCCOCCOC (stereo not shown) [A2 CE, 2-(2-methoxy)-ethoxyethyl 8-(2-n-octylcyclopropyl)-n-octyl ether]
effect on cap formation / effectiveness as membrane mobility agent (rabbit lymphocytes; standard incubation period, FIGS. 3 and 4): less than the ester A1 C in effect

CCCCCCCCCCCCCCCCCC(=O)OCCOCCOC [A2 S, 2-(2-methoxy)-ethoxyethyl octadecanoate, reference compound]
membrane mobility activity (active/inactive) (rabbit lymphocytes; classification of compounds of Table I): inactive

CCCCCCCCC1CC1CCCCCCCC(=O)OCCOCCOCCOC (stereo not shown) [A3 C, 2-[2-(2-methoxy)-ethoxy]ethoxyethyl 8-(2-n-octycyclopropyl)-octanoate]
cytotoxicity on lymphocytes relative to concentration affecting mobility (lymphocytes): toxicity with amounts close to that at which an effect on mobility was seen

CN1CCN(C(=O)N=NC(=O)N2CCN(C)CC2)CC1 [DIP, diazene dicarboxylic acid bis(N'-methylpiperazide)]
oxidation of intracellular glutathione (glutathione): oxidizes the glutathione within cells to glutathione disulfide
